Test results as given in patent US20260022143A1, “Cyclic Peptide Inhibitors of IL-23” (JANSSEN PHARMACEUTICA NV, priority 2022, published 2026).
Starred links: 1 amine or outer side, 2 acyl side, 3 side chain; linkers in the order of their positions; H or OH if unused. Positions of bridges follow the written chain, without caps; N, C: chain ends. Non-standard residues stand in square brackets, D forms with d. Residues, ends and D or L forms follow the SMILES beside them. Groups on a side chain read outwards from the residue. *: point of attachment. Me3N+(CH2)2O(CH2)2O(CH2)2CO = C[N+](C)(C)CCOCCOCCC(=O)*; CH2CH2OCH2CH2OCH2CH2NMe3+ = C[N+](C)(C)CCOCCOCC*; Trp(7-Me) = Cc1cccc2c(C[C@H](N)C(=O)O)c[nH]c12; d(hLys(Me3)) = C[N+](C)(C)CCCCC[C@@H](N)C(=O)O; CH2CH2OCH2CH2NMe3+ = C[N+](C)(C)CCOCC*; γGlu = O=C(O)[C@H](CCC(=O)[*:2])N[*:1]; 2Nal = N[C@@H](Cc1ccc2ccccc2c1)C(=O)O; 3Pal = N[C@@H](Cc1cccnc1)C(=O)O; Myristoyl = CCCCCCCCCCCCCC(=O)*; Lys(Me) = CNCCCC[C@H](N)C(=O)O; NMeK = CN[C@@H](CCCCN)C(=O)O; Pen = CC(C)(S)[C@H](N)C(=O)O; Lauroyl = CCCCCCCCCCCC(=O)*; Thp = NC1(C(=O)O)CCOCC1; X3 = C[N+](C)(C)CCCCC*; AEEA = NCCOCCOCC(=O)O; Sar = CNCC(=O)O

assay: Exposed Polar Surface Area (EPSA); type: physicochemical; conditions: SFC on Chirex 3014 column; sample 1 mM DMSO stock; read-out: EPSA
Procedure, shortened: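 SFC retention on a Chirex 3014 (S-valine/(R)-1-(α-naphthyl)ethylamine) column at 35 °C, 4 mL/min, 14 MPa outlet, 5–60% methanol/20 mM ammonium formate gradient in CO2. Retention times converted to EPSA (Å²) via linear calibration with 8 standards; samples from 1 mM DMSO stock, run in duplicate.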

Row | Structure (SMILES) | EPSA
1 | CCCCCCCCCCCCCC(=O)N[C@@H](CCC(=O)NCCOCCOCC(=O)NCCOCCOCC(=O)NCCCC[C@H](NC(=O)C1(NC(=O)[C@H](Cc2ccc3ccccc3c2)NC(=O)[C@H](Cc2ccc(OCCCCC[N+](C)(C)C)cc2)NC(=O)[C@H]2NC(=O)[C@H](CCCCNC(C)=O)NC(=O)[C@H](Cc3c[nH]c4c(C)cccc34)NC(=O)[C@H]([C@@H](C)O)NC(=O)[C@H](CC(=O)N(C)C)NC(=O)[C@@H](NC(=O)CCOCCOCC[N+](C)(C)C)C(C)(C)SSC2(C)C)CCOCC1)C(=O)N[C@@H](CC(N)=O)C(=O)N[C@@H](Cc1cccnc1)C(=O)N(C)[C@@H](CCCCNC(=O)COCCOCCNC(=O)COCCOCCNC(=O)CC[C@H](NC(=O)CCCCCCCCCCCCC)C(=O)O)C(N)=O)C(=O)O [compound 351, cPEG3aCO-Pen(3)-N(N(Me)2)-T-7MeW-K(Ac)-Pen(3)-TMAPF-2Nal-THP-K(PEG2PEG2gEC14)-N-3Pya-NMeK(PEG2PEG2gEC14)-CONH2] ({Me3N+(CH2)2O(CH2)2O(CH2)2CO}-[Pen]D(NMe2)T[Trp(7-Me)]K(Ac)[Pen]Y(X3)[2Nal][Thp]K([AEEA-AEEA-γGlu-Myristoyl])N[3Pal][NMeK]([AEEA-AEEA-γGlu-Myristoyl])-NH2; disulfide 1-6) | 184 A^2
2 | CCCCCCCCCCCCCC(=O)N[C@@H](CCC(=O)NCCOCCOCC(=O)NCCOCCOCC(=O)NCCCC[C@@H]1NC(=O)[C@H](Cc2c[nH]c3c(C)cccc23)NC(=O)[C@H]([C@@H](C)O)NC(=O)[C@H](CC(=O)N(C)C)NC(=O)[C@@H](NC(=O)CCOCCOCC[N+](C)(C)C)C(C)(C)SSC(C)(C)[C@@H](C(=O)N[C@@H](Cc2ccc(OCCCCC[N+](C)(C)C)cc2)C(=O)N[C@@H](Cc2ccc3ccccc3c2)C(=O)NC2(C(=O)N[C@@H](CCCCN(C)C(C)=O)C(=O)N[C@@H](CC(N)=O)C(=O)N[C@@H](Cc3cccnc3)C(=O)N(C)[C@@H](CCCCNC(=O)COCCOCCNC(=O)COCCOCCNC(=O)CC[C@H](NC(=O)CCCCCCCCCCCCC)C(=O)O)C(N)=O)CCOCC2)NC1=O)C(=O)O [compound 355, cPEG3aCO-Pen(3)-N(N(Me)2)-T-7MeW-K(PEG2PEG2gEC14)-Pen(3)-TMAPF-2Nal-THP-K(NMeac)-N-3Pya-NMeK(PEG2PEG2gEC14)-CONH2] ({Me3N+(CH2)2O(CH2)2O(CH2)2CO}-[Pen]D(NMe2)T[Trp(7-Me)]K([AEEA-AEEA-γGlu-Myristoyl])[Pen]Y(X3)[2Nal][Thp][Lys(Me)](Ac)N[3Pal][NMeK]([AEEA-AEEA-γGlu-Myristoyl])-NH2; disulfide 1-6) | 186 A^2
3 | CCCCCCCCCCCCCC(=O)N[C@@H](CCC(=O)NCCOCCOCC(=O)NCCOCCOCC(=O)NCCCC[C@@H]1NC(=O)[C@@H](NC(=O)CCOCCOCC[N+](C)(C)C)C(C)(C)SSC(C)(C)[C@@H](C(=O)N[C@@H](Cc2ccc(OCCCCC[N+](C)(C)C)cc2)C(=O)N[C@@H](Cc2ccc3ccccc3c2)C(=O)NC2(C(=O)N[C@@H](CCCCN(C)C(C)=O)C(=O)N[C@@H](CC(N)=O)C(=O)N[C@@H](Cc3cccnc3)C(=O)N(C)[C@@H](CCCCNC(=O)COCCOCCNC(=O)COCCOCCNC(=O)CC[C@H](NC(=O)CCCCCCCCCCCCC)C(=O)O)C(N)=O)CCOCC2)NC(=O)[C@H](CCCCNC(C)=O)NC(=O)[C@H](Cc2c[nH]c3c(C)cccc23)NC(=O)[C@H]([C@@H](C)O)NC1=O)C(=O)O [compound 357, cPEG3aCO-Pen(3)-K(PEG2PEG2gEC14)-T-7MeW-K(Ac)-Pen(3)-TMAPF-2Nal-THP-K(NMeac)-N-3Pya-NMeK(PEG2PEG2gEC14)-CONH2] ({Me3N+(CH2)2O(CH2)2O(CH2)2CO}-[Pen]K([AEEA-AEEA-γGlu-Myristoyl])T[Trp(7-Me)]K(Ac)[Pen]Y(X3)[2Nal][Thp][Lys(Me)](Ac)N[3Pal][NMeK]([AEEA-AEEA-γGlu-Myristoyl])-NH2; disulfide 1-6) | 181 A^2
4 | CC(=O)N(C)CCCC[C@@H]1NC(=O)[C@H](Cc2c[nH]c3c(C)cccc23)NC(=O)[C@H]([C@@H](C)O)NC(=O)[C@H](CC(=O)N(C)C)NC(=O)[C@@H](NC(=O)CCOCCOCC[N+](C)(C)C)C(C)(C)SSC(C)(C)[C@@H](C(=O)N[C@@H](Cc2ccc(OCCOCCOCC[N+](C)(C)C)cc2)C(=O)N[C@@H](Cc2ccc3ccccc3c2)C(=O)NC2(C(=O)N[C@@H](CCCCN(C)C(C)=O)C(=O)N[C@@H](CC(N)=O)C(=O)N[C@@H](Cc3cccnc3)C(=O)N(C)CC(N)=O)CCOCC2)NC1=O [compound 363, cPEG3aCO-Pen(3)-N(N(Me)2)-T-7MeW-K(NMeAc)-Pen(3)-APEG3F-2Nal-THP-K(NMeAc)-N-3Pya-Sar-CONH2] ({Me3N+(CH2)2O(CH2)2O(CH2)2CO}-[Pen]D(NMe2)T[Trp(7-Me)][Lys(Me)](Ac)[Pen]Y(CH2CH2OCH2CH2OCH2CH2NMe3+)[2Nal][Thp][Lys(Me)](Ac)N[3Pal][Sar]-NH2; disulfide 1-6) | 155 A^2
5 | CC(=O)N[C@@H]1C(=O)N[C@@H](COCCOCC[N+](C)(C)C)C(=O)N[C@@H]([C@@H](C)O)C(=O)N[C@@H](Cc2c[nH]c3c(C)cccc23)C(=O)N[C@@H](CCCCN(C)C(C)=O)C(=O)N[C@H](C(=O)N[C@@H](Cc2ccc(OCCOCCOCC[N+](C)(C)C)cc2)C(=O)N[C@@H](Cc2ccc3ccccc3c2)C(=O)NC2(C(=O)N[C@@H](CCCCN(C)C(C)=O)C(=O)N[C@@H](CC(N)=O)C(=O)N[C@@H](Cc3cccnc3)C(=O)N(C)CC(=O)N(C)C)CCOCC2)C(C)(C)SSC1(C)C [compound 365] (Ac-[Pen]S(CH2CH2OCH2CH2NMe3+)T[Trp(7-Me)][Lys(Me)](Ac)[Pen]Y(CH2CH2OCH2CH2OCH2CH2NMe3+)[2Nal][Thp][Lys(Me)](Ac)N[3Pal][Sar]-NMe2; disulfide 1-6) | 150 A^2

The remaining lines, values ahead:

Row | EPSA | Structure (SMILES)
6 | 170 A^2 | CCCCCCCCCCCCCC(=O)N[C@@H](CCC(=O)NCCOCCOCC(=O)NCCOCCOCC(=O)NCCCC[C@@H]1NC(=O)[C@@H](NC(=O)[C@@H](CCCCC[N+](C)(C)C)NC(=O)COCCOCCNC(=O)COCCOCCNC(=O)CC[C@H](NC(=O)CCCCCCCCCCCCC)C(=O)O)C(C)(C)SSC(C)(C)[C@@H](C(=O)N[C@@H](Cc2ccc(OCCCCC[N+](C)(C)C)cc2)C(=O)N[C@@H](Cc2ccc3ccccc3c2)C(=O)NC2(C(=O)N[C@@H](CCCCN(C)C(C)=O)C(=O)N[C@@H](CC(N)=O)C(=O)N[C@@H](Cc3cccnc3)C(=O)N(C)CC(=O)N(C)C)CCOCC2)NC(=O)[C@H](CCCCN(C)C(C)=O)NC(=O)[C@H](Cc2c[nH]c3c(C)cccc23)NC(=O)[C@H]([C@@H](C)O)NC1=O)C(=O)O [compound 374, C14gEPEG2PEG2CO-hk(Me)3-Pen(3)-K(PEG2PEG2gEC14)-T-7MeW-K(NMeAc)-Pen(3)-TMAPF-2Nal-THP-K(NMeAc)-N-3Pya-Sar-CON(Me)2] ({Myristoyl-γGlu-AEEA-AEEA}-[d(hLys(Me3))][Pen]K([AEEA-AEEA-γGlu-Myristoyl])T[Trp(7-Me)][Lys(Me)](Ac)[Pen]Y(X3)[2Nal][Thp][Lys(Me)](Ac)N[3Pal][Sar]-NMe2; disulfide 2-7)
7 | 176 A^2 | CCCCCCCCCCCCCC(=O)N[C@@H](CCC(=O)NCCOCCOCC(=O)NCCOCCOCC(=O)NCCCC[C@H](NC(=O)C1(NC(=O)[C@H](Cc2ccc3ccccc3c2)NC(=O)[C@H](Cc2ccc(OCCCCC[N+](C)(C)C)cc2)NC(=O)[C@H]2NC(=O)[C@H](CCCCN(C)C(C)=O)NC(=O)[C@H](Cc3c[nH]c4c(C)cccc34)NC(=O)[C@H]([C@@H](C)O)NC(=O)[C@H](CC(=O)N(C)C)NC(=O)[C@@H](NC(=O)[C@@H](CCCCC[N+](C)(C)C)NC(=O)COCCOCCNC(=O)COCCOCCNC(=O)CC[C@H](NC(=O)CCCCCCCCCCCCC)C(=O)O)C(C)(C)SSC2(C)C)CCOCC1)C(=O)N[C@@H](CC(N)=O)C(=O)N[C@@H](Cc1cccnc1)C(=O)N(C)CC(=O)N(C)C)C(=O)O [compound 376, C14gEPEG2PEG2CO-hk(Me)3-Pen(3)-N(N(Me)2)-T-7MeW-K(NMeAc)-Pen(3)-TMAPF-2Nal-THP-K(PEG2PEG2gEC14)-N-3Pya-Sar-CON(Me)2] ({Myristoyl-γGlu-AEEA-AEEA}-[d(hLys(Me3))][Pen]D(NMe2)T[Trp(7-Me)][Lys(Me)](Ac)[Pen]Y(X3)[2Nal][Thp]K([AEEA-AEEA-γGlu-Myristoyl])N[3Pal][Sar]-NMe2; disulfide 2-7)
8 | 171 A^2 | CCCCCCCCCCCC(=O)N[C@@H](CCC(=O)NCCOCCOCC(=O)NCCOCCOCC(=O)NCCCC[C@@H]1NC(=O)[C@@H](NC(=O)[C@@H](CCCCNC(=O)COCCOCCNC(=O)COCCOCCNC(=O)CC[C@H](NC(=O)CCCCCCCCCCC)C(=O)O)NC(=O)CCOCCOCC[N+](C)(C)C)C(C)(C)SSC(C)(C)[C@@H](C(=O)N[C@@H](Cc2ccc(OCCCCC[N+](C)(C)C)cc2)C(=O)N[C@@H](Cc2ccc3ccccc3c2)C(=O)NC2(C(=O)N[C@@H](CCCCN(C)C(C)=O)C(=O)N[C@@H](CC(N)=O)C(=O)N[C@@H](Cc3cccnc3)C(=O)N(C)CC(=O)N(C)C)CCOCC2)NC(=O)[C@H](CCCCN(C)C(C)=O)NC(=O)[C@H](Cc2c[nH]c3c(C)cccc23)NC(=O)[C@H]([C@@H](C)O)NC1=O)C(=O)O [compound 380, cPEG3aCO-k(PEG2PEG2gEC12)-Pen(3)-K(PEG2PEG2gEC12)-T-7MeW-K(NMeAc)-Pen(3)-TMAPF-2Nal-THP-K(NMeAc)-N-3Pya-Sar-CON(Me)2] ({Me3N+(CH2)2O(CH2)2O(CH2)2CO}-[dK]([AEEA-AEEA-γGlu-Lauroyl])[Pen]K([AEEA-AEEA-γGlu-Lauroyl])T[Trp(7-Me)][Lys(Me)](Ac)[Pen]Y(X3)[2Nal][Thp][Lys(Me)](Ac)N[3Pal][Sar]-NMe2; disulfide 2-7)
